Where a SMILES comes first, the peptide text is derived from it. Bridges are numbered along the chain shown (N, C = ends). Where no end group is shown, it is not given here.
What was measured:
[1] = molecular target: T1, CG14593 (Drosophila melanogaster, UniProt Q4V622); test: [Ca2+]i assay in CHO-CG14593 cells (FlexStation 3); assay type: cell-based; conditions: synthetic peptide not generated; predicted from amount of purified peptide and specific activity
T1 construct: expressed in transfected cells
T1 sequence (Q4V622 1-489): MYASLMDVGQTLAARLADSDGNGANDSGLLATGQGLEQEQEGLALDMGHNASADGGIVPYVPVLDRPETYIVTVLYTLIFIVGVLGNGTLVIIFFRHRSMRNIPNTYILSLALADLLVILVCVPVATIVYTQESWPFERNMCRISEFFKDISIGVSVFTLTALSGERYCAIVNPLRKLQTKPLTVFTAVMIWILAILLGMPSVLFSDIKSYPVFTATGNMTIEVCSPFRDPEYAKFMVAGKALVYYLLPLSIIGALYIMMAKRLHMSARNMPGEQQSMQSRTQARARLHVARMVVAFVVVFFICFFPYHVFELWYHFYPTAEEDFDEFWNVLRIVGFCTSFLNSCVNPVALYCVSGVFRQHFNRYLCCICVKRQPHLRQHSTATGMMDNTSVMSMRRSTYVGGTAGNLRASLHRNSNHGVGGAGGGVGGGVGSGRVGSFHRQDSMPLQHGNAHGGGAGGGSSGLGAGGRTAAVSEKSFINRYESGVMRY
Experimental: (§1) An assay system using CG30106- or CG14593-expressing cells was prepared as previously described ([Ida et al., 2011a],[b]). The full-length cDNA of Drosophila CG30106 (GenBank accession number: NM_136355; residues […] to 1700) and CG14593 (GenBank accession number: NM_136355; residues 656–2185) was obtained by RT-PCR using Drosophila cDNA as the template. The sense and antisense primers for CG30106 were 5′-[…]-3′ and 5′-[…]-3′, respectively. The sense and antisense primers for CG14593 were 5′-[…]-3′ and 5′-[…]-3′, respectively. The amplified cDNA was ligated into the pcDNA3.1 vector (Invitrogen). The expression vector, i.e., CG30106 or CG14593-pcDNA3.1, was transfected into Chinese hamster ovary (CHO) cells by using with Fugene6 transfection reagent (Roche), and stably expressing cells were selected using 1 mg/ml G418. […] Changes in intracellular Ca^2^+ concentrations ([Ca^2^+]i) were measured using the FlexStation 3 fluorometric imaging plate reader to conduct high-throughput measurements of intracellular Ca^2^+ concentration (Molecular Devices, CA, USA; [Marshall et al., 2005]). […] The cells were incubated with 100 μl of Calcium 4 assay kit reagent (Molecular Devices) for 1 h, and then 50 μl of each sample was added to the CHO-CG30106 or CHO-CG14593 cells to induce changes in fluorescence. The maximum [Ca^2^+]i changes were recorded. […]

[2] = tested on: CHO cells transfected with the vector alone; test: [Ca2+]i response in CHO cells transfected with the vector alone; assay type: cell-based, Chinese hamster; conditions: data not shown
Experimental: as §1

[3] = tested on: blowfly Phormia regina; test: Proboscis extension reflex (PER) test; assay type: in vivo; conditions: 30 min after injection of 10 pmol (1 μl) into the shoulder, linger solution control 236 mM, p < 0.05, five sets of 20 flies
Experimental: The proboscis extension reflex (PER) test and feeding test were performed for the blowfly Phormia regina as previously described ([Nisimura et al., 2005]; [Ida et al., 2011a]). CCHamide-2 was dissolved in blowfly linger solution at a concentration of […]. Twenty flies were secured by their wings using washing pins, and the first PER test was performed by using 12 steps of sucrose concentrations that had been prepared by twofold serial dilutions in distilled water, beginning from a sucrose concentration of 1 M. We investigated the PER in three different groups of 20 flies each: no injection, fly linger injection, and fly linger plus peptide injection. The PER tests were performed 30 min after 1 μl of blowfly linger solution with or without peptide was injected into the shoulder of each fly. We repeated five sets of PER tests each, in which 20 flies were used in each batch.
Results are presented as the mean ± SEM for each group. To compare the PER thresholds among the three groups, we used a non-parametric Steel–Dwass test. The criterion for statistical significance was p < 0.05 for all tests. The statistical software program GraphPad PRISM (GraphPad software, CA, USA) was used for analyses.
In contrast, no difference was observed between the mean PER threshold without any injection and 30 min after linger solution injection (222 and 236 mM, respectively, p > 0.05). […]

[4] = tested on: flies; conditions: administration of CCHamide-2; ref Hiraguchi et al., paper in preparation; cited from earlier work
Excerpt: In addition, CCHamide-1 and CCHamide-2 have been detected in the nervous system and midgut in a mass spectrometry study performed by [Reiher et al. (2011)]. […] It is generally accepted that brain–gut peptides regulate feeding behavior in mammals ([Williams et al., 2001]). These peptides include neuropeptide Y, peptide YY, gastrin-releasing peptide, vasoactive inte ...

| Compound | predicted potency for activating CG14593 [1] | [Ca2+]i response in vector-only CHO cells [2] | mean PER threshold (sucrose concentration at which 50% of flies show PER) [3] [mM] | sucrose intake [4] |
| --- | --- | --- | --- | --- |
| KKGCQAYGHVCYGGH-NH2 (disulfide 4-11 (inferred); N-terminus assumed; SMILES CC(C)[C@@H]1NC(=O)[C@H](Cc2c[nH]cn2)NC(=O)CNC(=O)[C@H](Cc2ccc(O)cc2)NC(=O)[C@H](C)NC(=O)[C@H](CCC(N)=O)NC(=O)[C@@H](NC(=O)CNC(=O)[C@H](CCCCN)NC(=O)[C@@H](N)CCCCN)CSSC[C@@H](C(=O)N[C@@H](Cc2ccc(O)cc2)C(=O)NCC(=O)NCC(=O)N[C@@H](Cc2c[nH]cn2)C(N)=O)NC1=O) [N-terminal extended form of CCHamide-2 purified from flies; not synthesized] | high potency similar to that of other forms of CCHamide-2 | – | – | – |
| CC(C)C[C@@H]1NC(=O)[C@@H](NC(=O)[C@@H](N)CO)CSSC[C@@H](C(=O)N[C@@H](Cc2c[nH]c3ccccc23)C(=O)NCC(=O)N[C@@H](C)C(=O)N[C@@H](Cc2c[nH]cn2)C(N)=O)NC(=O)[C@H](CO)NC(=O)[C@H](Cc2c[nH]cn2)NC(=O)CNC(=O)[C@H](Cc2ccc(O)cc2)NC(=O)[C@H](CCC(=O)O)NC1=O [CCHamide-1] (H-SCLEYGHSCWGAH-NH2; disulfide 2-9) | – | Neither CCHamide-2 nor CCHamide-1 induced a response | – | – |
| CC(C)[C@@H]1NC(=O)[C@H](Cc2c[nH]cn2)NC(=O)CNC(=O)[C@H](Cc2ccc(O)cc2)NC(=O)[C@H](C)NC(=O)[C@H](CCC(N)=O)NC(=O)[C@@H](NC(=O)CN)CSSC[C@@H](C(=O)N[C@@H](Cc2ccc(O)cc2)C(=O)NCC(=O)NCC(=O)N[C@@H](Cc2c[nH]cn2)C(N)=O)NC1=O [CCHamide-2] (H-GCQAYGHVCYGGH-NH2; disulfide 2-9) | – | Neither CCHamide-2 nor CCHamide-1 induced a response | 77.2 | significantly increased |
